Data as given in patent publication US11672792B2, “Topical formulations comprising montelukast and combinations with mussel adhesive proteins” (ENLITISA (SHANGHAI) PHARMACEUTICAL CO., LTD, priority 2017, dated 2023).

What was measured:
[1] = tested on: carrageenan-induced acute inflammation in subcutaneous air pouch; assay: Air Pouch Model: Combination of Montelukast (Example 5); assay type: in vivo, mice; conditions: MAP 1.5 mg, Mon 200 μg
[2] = tested on: carrageenan-induced acute inflammation in subcutaneous air pouch; assay: Air Pouch Model I (Example 1); assay type: in vivo, C57BL/6 mice; set-up: Activity score / Edema Score / Sum (of histology scores) / Fibroplastic proliferation score / Inflammation score: scale not given here; conditions: MAP 1.5 mg, Mon 200 μg
Procedure: Healthy adult male C57BL/6 mice weighing between 20 and 30 g were supplied by Changzhou Cvens Experimental Animal Co. Ltd (Changzhou, Jiangsu Province, China). Prior to any experiments being conducted, mice were housed under standardized conditions (at a constant temperature or 22 t 2° C., with alternating 12 hour periods of light and darkness), and were fed on a standard mouse diet with water, for about a week.
General anesthesia was induced using intraperitoneal 3% chloral hydrate (Sinopharm Chemical Reagent Co., Ltd., Shanghai, China); 1 mL/10 g of body weight). The hair of the entire dorsum was shaved and depilated 1 day before sterile air injection.
Air pouches were produced by subcutaneous injection of sterile air (5 mL) into the intrascapular area of the mice. After three days, another injection of air (3 mL) was performed to maintain the pouches. In order to induce acute inflammation, three days after this final injection, animals received an injection of sterile carrageenan solution (CP Kelco, Taixing, Jiangsu Province, China; 1%, 0.5 mL; produced by adding 0.1 g of carrageenan powder into a beaker containing 10 mL of 0.9% saline solution and stirring). Mice were pre-treated with test samples or vehicle 1 hour before and 23 hours after the carrageenan injection into the subcutaneous air pouch. Animals were sacrificed 24 hours after the carrageenan injection.
Skin biopsies were taken from the air pouches. A part of the biopsy was fixed in formalin (produced by adding ultra pure water to 50 mL of a 40% formaldehyde solution (Nanchang Rain Dew Experimental Equipment Co., Ltd., Nanchang, […] Provence, China) up to a total volume of 500 mL) and analyzed by histological embedding in paraffin wax, sectioning and staining.
The cavity was washed with 4 mL of sterile phosphate buffer solution (pH 7.4; prepared by dissolving 4 g of NaCl, 0.1 g of KCl, 1.749 g of Na2HPO4.12H2O and 0.1 g of KH2PO4 in ultrapure water, adjusting the pH to 7.4 with HCl and diluting with water to a total volume of 500 mL).
Exudates were collected and volumes were quantified. The total number of cells was determined with a haematocytometer (ADVIA 2120 Hematology System, Siemens Healthineers).
In Table 1, MAP is a Mefp-1 solution, which is was prepared as follows. Blue mussels were harvested in the coastal area of Shandong Province, China. Mussel feet were collected, cut into small pieces and homogenized in an extraction buffer comprising 5% acetic acid in 4 mol/L of aqueous urea. The crude extracts were collected after centrifuging and then purified by liquid chromatography. […] The solutions that were employed below were prepared by adding saline solution to this semi-finished product to obtain a concentration as described in Table 1.

[3] = tested on: carrageenan-induced acute inflammation in subcutaneous air pouch; assay: Air Pouch Model II (Example 2); assay type: in vivo, mice; set-up: Fibroplastic proliferation score / Inflammation score / Activity score / Edema Score / Sum (of histology scores): scale not given here; conditions: Dopamine 2 mg, MAP 250 μg, Mon 100 μg
Procedure: In Table 6, “Dex” is an abbreviation for dexamethasone and “Dopamine” is a 4 mg/mL aqueous solution of dopamine hydrochloride (Shanghai Aladdin Bio-Chem Technology Co., Ltd., Shanghai, China).
The histological specimens were analysed and an inflammation score, an activity score and a fibroplastic proliferation score were estimated as in Example 1 above and are tabulated in Table 9 below.

[4] = tested on: carrageenan-induced acute inflammation in subcutaneous air pouch; assay: Air Pouch Model: Topical Administration Versus Oral Administration (Example 4); conditions: 200 μg/mouse, Mon-O intragastric
[5] = doses/mouse: dexamethasone 200 μg
[6] = doses/mouse: dexamethasone 200 μg, 24 h after carrageenan
[7] = pouch wall histology, dexamethasone 200 μg

With C[C@@H]1C[C@H]2[C@@H]3CCC4=CC(=O)C=C[C@]4(C)[C@@]3(F)[C@@H](O)C[C@]2(C)[C@@]1(O)C(=O)CO [Dexamethasone, dexamethasone] the Activity score ([1]; dexamethasone 200 μg) was 0.83, the “Edema Score” value ([1]; dexamethasone 200 μg) was 1.67 and the Fibroblast proliferation score ([1]; dexamethasone 200 μg) was 0.00. For the same molecule, the “IFN-γ in exudate (ELISA)” value ([1]; dexamethasone 200 μg) was 2879 ± 1267, the “IL-6 in exudate (ELISA)” value ([1]; dexamethasone 200 μg) was 3649 ± 1764 and the “IL-10 in exudate (ELISA)” value ([1]; dexamethasone 200 μg) was 52.33 ± 11.60. For the same molecule, the Inflammation score ([1]; dexamethasone 200 μg) was 1.50, the “Leukocyte count in exudate” value ([1]; dexamethasone 200 μg) was 2.48e+06 mL⁻¹ and the “Lymphocyte count in exudate” value ([1]; dexamethasone 200 μg) was 2.08e+06 mL⁻¹. The “Monocyte count in exudate” value ([1]; dexamethasone 200 μg) was 50000 mL⁻¹, the “Neutrophil count in exudate” value ([1]; dexamethasone 200 μg) was 220000 mL⁻¹ and the “Sum (of histology scores)” value ([1]; dexamethasone 200 μg) was 4.00. For the same molecule, the “TNF-α in exudate (ELISA)” value ([1]; dexamethasone 200 μg) was 71.31 ± 111.19, the “Exudate volume” value [1, 5] was 3.60 ± 0.14 mL and the “Pouch Wall Weight” value [1, 5] was 0.72 ± 0.09 g. For the same molecule, the “IFN-γ in exudate (ELISA)” value ([2]; dexamethasone 200 μg) was 2879 ± 1267, the “IL-6 in exudate (ELISA)” value ([2]; dexamethasone 200 μg) was 3649 ± 1764 and the “IL-10 in exudate (ELISA)” value ([2]; dexamethasone 200 μg) was 52.33 ± 11.60. The “TNF-α in exudate (ELISA)” value ([2]; dexamethasone 200 μg) was 71.31 ± 111.19, the “Leukocyte count in exudate” value [2, 5] was 2.48e+08 mL⁻¹ and the “Lymphocyte count in exudate” value [2, 5] was 2.08e+08 mL⁻¹. The “Monocyte count in exudate” value [2, 5] was 5e+06 mL⁻¹, the “Neutrophil count in exudate” value [2, 5] was 2.2e+07 mL⁻¹ and the “Exudate volume” value [2, 6] was 3.60 ± 0.14 mL. For the same molecule, the “Pouch Wall Weight” value [2, 6] was 0.72 ± 0.09 g, the Activity score [2, 7] was 0.83 and the “Edema Score” value [2, 7] was 1.67. The Fibroplastic proliferation score [2, 7] was 0.00, the Inflammation score [2, 7] was 1.50 and the “Sum (of histology scores)” value [2, 7] was 4.00. For the same molecule, the Activity score ([3]; Dex 400 μg) was 0.33, the “Edema Score” value ([3]; Dex 400 μg) was 0.83 and the Fibroplastic proliferation score ([3]; Dex 400 μg) was 0.00. The “IFN-γ in exudate (ELISA)” value ([3]; Dex 400 μg) was 238.91 ± 272.27, the “IL-6 in exudate (ELISA)” value ([3]; Dex 400 μg) was 3697.30 ± 5112.52 and the Inflammation score ([3]; Dex 400 μg) was 0.83. For the same molecule, the “Leukocyte count in exudate” value ([3]; Dex 400 μg) was 880000 mL⁻¹, the “Lymphocyte count in exudate” value ([3]; Dex 400 μg) was 30000 mL⁻¹ and the “Monocyte count in exudate” value ([3]; Dex 400 μg) was 670000 mL⁻¹. For the same molecule, the “Neutrophil count in exudate” value ([3]; Dex 400 μg) was 130000 mL⁻¹, the “Sum (of histology scores)” value ([3]; Dex 400 μg) was 2.00 and the “Exudate volume” value ([3]; doses/mouse: Dex 400 μg) was 2.87 ± 0.06 mL. The “Pouch Wall Weight” value ([3]; doses/mouse: Dex 400 μg) was 0.45 ± 0.01 g, the “Exudate volume” value ([4]; others injected into pouch) was 3.3 ± 0.15 mL and the “Pouch Wall Weight” value ([4]; others injected into pouch) was 0.63 ± 0.09 g. For the same molecule, the Activity score ([4]; others into pouch) was 0.67, the “Edema Score” value ([4]; others into pouch) was 1.67 and the “IFN-γ in exudate (ELISA)” value ([4]; others into pouch) was 388.83 ± 130.02. For the same molecule, the “IL-6 in exudate (ELISA)” value ([4]; others into pouch) was 428.05 ± 267.27, the “Inflammation score” value ([4]; others into pouch) was 1.83 and the “Leukocyte count in exudate” value ([4]; others into pouch) was 3.49e+06 mL⁻¹. For the same molecule, the “Sum (of histology scores)” value ([4]; others into pouch) was 4.17 and the “TNF-α in exudate (ELISA)” value ([4]; others into pouch) was 65.08 ± 7.70.
